Measured values reported in patent US10729690B2, “Antihelminthic medications for pathogenic nematodes” (priority 2016, dated 2020).
“Also recorded” adds a separate entry of the source.

Legend:
[1] = tested on: C. elegans genome (immune and detoxification gene transcription); test: Transcriptome profiles of wild-type nematodes (Affymetrix whole genome genechips); format: in vivo
Procedure: The effects of R24 on C. elegans was further characterized by generating transcriptome profiles of wild-type nematodes following exposure to either 70 μM R24 or the solvent control DMSO using Affymetrix whole genome […] induced a remarkably robust transcriptional response that involved only a small fraction ( 1.3%) of the genes of the C. elegans genome. […] For example, seventy (70) of the two hundred sixty-nine (269) […]. aeruginosa using a previously described gene set. Troemel et al., (2006).

[2] = tested on: C. elegans; test: C. elegans brood size; format: in vivo; conditions: absence of pathogen
Text: (§1) In reports describing the anti-infective, immunostimulatory xenobiotic R24 it was noted that this compound was toxic to nematodes growing in the absence of pathogen. Pukkila-Worley et al., (2012). […] FIG. 4A. […] FIG. 4B.

[3] = tested on: p38 MAPK PMK-1-dependent antimicrobial immune effectors; conditions: nanoString codeset of 118 genes; previous study (Pukkila-Worley 2014); cited from earlier work
[4] = tested on: F08G5.6::GFP (p38 MAPK PMK-1 pathway-dependent immune effector reporter); test: F08G5.6::GFP immune transcriptional reporter in C. elegans; format: in vivo
[5] = tested on: C. elegans; test: C. elegans survival in the absence of pathogen; format: in vivo
Text: as §1

[6] = tested on: C. elegans genome (immune and detoxification gene transcription); conditions: previously observed; not dependent on p38 MAPK PMK-1 pathway; cited from earlier work
[7] = tested on: P. aeruginosa; test: In vitro P. aeruginosa growth assay in the absence of C. elegans; format: cell-based
[8] = tested on: P. aeruginosa infection of C. elegans; test: "Slow killing" P. aeruginosa infection (pathogenesis) assay in C. elegans; format: in vivo
[9] = tested on: p38 MAPK PMK-1-dependent antimicrobial immune effectors; format: in vivo, C. elegans; conditions: qRT-PCR
[10] = tested on: nematodes; test: Nematode killing by UPR inducers combined with immunostimulatory molecules; format: in vivo
Text: In one embodiment, the present invention contemplates a method comprising administering small molecules having clinical antihelminthic efficacy by inducing an unfolded protein response (UPR) in endoplasmic reticulum. In one embodiment, the unfolded endoplasmic reticulum protein response is mediated by small molecules including, but not limited to, tunicamycin and bortezomib (Velcade®). […] See, FIG. 4C. Although it is not necessary to understand the mechanism of an invention, it is believed that components of the nematode UPR are strongly conserved and thus UPR inducers will have dose-limiting toxicity in mammals.
Nematocidal activity of different combinations of these molecules and known anti-helminthics (e.g. ivermectin and albendazole) can be tested to identify those that have synergistic activity. For example, antihelminthic efficacy of chemical inducers of the UPR (e.g. tunicamycin) can be used.

## Cc1ccc(Nc2nc(N)c3ccccc3n2)cc1Cl [R24]
[1]; 70 μM R24, overlap P<2.7×10^−16
  number of the 269 R24-induced genes activated during infection with P. aeruginosa: 70 genes
[1]; 70 μM R24 vs DMSO
  number of genes induced more than 50-fold: 125 genes
[1]; 70 μM R24 vs DMSO, P<0.025
  number of genes upregulated three-fold or greater: 269 genes
[1]; 70 μM R24 vs solvent control DMSO, wild-type
  fraction of the genes of the C. elegans genome involved in the transcriptional response: ~1.3%
[2]
  brood sizes of nematodes exposed from the first larval stage: dramatically smaller
[3]
  number of codeset genes whose induction by R24 was dependent on the p38 MAPK PMK-1: 13 genes
[4]; nsy-1(ums8) gain-of-function mutant, 70 μM R24 (FIG. 11B)
  F08G5.6::GFP expression in nsy-1(ums8) mutant exposed to R24, compared to untreated nsy-1(ums8) animals: markedly increased
[4]; uninfected nematodes
  F08G5.6::GFP transgene expression: strongly induced
[5]
  C. elegans survival: dose dependent shortening
[6]
  induction of detoxification genes/enzymes (CYPs, GSTs, UDPs): robust induction; also recorded: causes the induction
[7]
  growth of P. aeruginosa in an in vitro assay: lack of effect; also recorded: did not have any effect
[8]; p38 MAP kinase pathway mutants, data not shown
  ability of R24 to prolong lifespan of C. elegans with mutations in four other p38 MAP kinase pathway components: dramatically attenuated
[8]; pmk-1(km25) null mutants, P<0.001
  R24-mediated lifespan prolongation of pmk-1(km25) null mutants infected with P. aeruginosa, compared to compound-treated wild-type: Lack of improved survivability; also recorded: significantly decreased
[8]; wild-type C. elegans
  C. elegans survival during P. aeruginosa bacterial infection: dose-dependent improvement; also recorded: Improved survivability; also recorded: protects
[9]
  antimicrobial immune effectors induced by R24 in wild-type that pmk-1(km25) mutants failed to upregulate: six of ten

## CC(C)C[C@H](NC(=O)[C@H](Cc1ccccc1)NC(=O)c1cnccn1)B(O)O [bortezomib]
[10]
  killing of nematodes in combination with immunostimulatory molecules: act synergistically

## tunicamycin
[10]
  killing of nematodes in combination with immunostimulatory molecules: act synergistically
